Patent US11802120B2, “Fused cyclic urea derivatives as CRHR2 antagonist” (RaQualia Pharma Inc., priority 2018, dated 2023)

Target: T1, human CRHR2-alpha (Homo sapiens, UniProt Q13324)
T1 sequence (Q13324 1-411): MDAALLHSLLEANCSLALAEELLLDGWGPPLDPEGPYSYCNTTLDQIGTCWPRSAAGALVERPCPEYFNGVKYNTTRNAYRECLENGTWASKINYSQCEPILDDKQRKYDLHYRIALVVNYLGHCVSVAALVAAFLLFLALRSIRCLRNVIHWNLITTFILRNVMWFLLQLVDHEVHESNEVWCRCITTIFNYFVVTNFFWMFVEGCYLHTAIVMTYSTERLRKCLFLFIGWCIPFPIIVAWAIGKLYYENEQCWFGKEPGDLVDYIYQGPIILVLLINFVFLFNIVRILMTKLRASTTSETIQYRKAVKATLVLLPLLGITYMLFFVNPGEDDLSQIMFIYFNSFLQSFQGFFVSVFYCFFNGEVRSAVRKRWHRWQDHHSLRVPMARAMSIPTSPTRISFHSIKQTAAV
Experiment: cAMP functional assay for human CRHR2 (LANCE Ultra cAMP, TR-FRET)
Format: cell-based
Conditions: CHO-K1 cells expressing human CRHR2-alpha, agonist human urocortin2 at EC80, cAMP; read-out: IC50 against CRHR2
Outline: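 First, starved and frozen CHO-K1 cells expressing the receptor are thawed into IBMX-containing HBSS buffer (pH 7.4). Next, compounds are added for 30 min at 25° C. Then agonist at EC80 (urocortin2 or CRF, per receptor) is added for another 30 min, followed by cAMP detection reagents.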

Structure (SMILES) | IC50 [nM]
Cc1ncc(Cl)cc1C(=O)N[C@H]1CC[C@H](Cn2c(=O)n(-c3ccc(-c4cnco4)cc3)c3ccccc32)CC1 [Example 450, 5-chloro-2-methyl-N-((1r,4r)-4-((3-(4-(oxazol-5-yl)phenyl)-2-oxo-2,3-dihydro-1H-benzo [d]imidazol-1-yl)methyl)cyclo-hexyl)nicotinamide] | < 300
Cc1ncc(Cl)cc1C(=O)N[C@H]1CC[C@H](Cn2c(=O)n(-c3ccc(-c4ncco4)cc3)c3ccccc32)CC1 [Example 451, 5-chloro-2-methyl-N-((1r,4r)-4-((3-(4-(oxazol-2-yl)phenyl)-2-oxo-2,3-dihydro-1H-benzo [d]imidazol-1-yl)methyl)cyclo-hexyl)nicotinamide] | < 300
Cc1ccc(-n2c(=O)n(C[C@H]3CC[C@H](NC(=O)c4cc(Cl)cnc4C(F)F)CC3)c3cccnc32)c(Cl)c1 [Example 452, 5-chloro-N-((1r,4r)-4-((3-(2-chloro-4-methylphenyl)-2-oxo-2,3-dihydro-1H-imidazo[4,5-b]pyridin-1-yl)methyl)cyclo-hexyl)-2-(difluoromethyl) nicotinamide] | < 300
COc1ccc(Cl)c(-n2c(=O)n(C[C@H]3CC[C@H](NC(=O)c4cc(Cl)cnc4C(F)F)CC3)c3cccnc32)c1 [Example 453, 5-chloro-N-((1r,4r)-4-((3-(2-chloro-5-methoxyphenyl)-2-oxo-2,3-dihydro-1H-imidazo [4,5-b]pyridin-1-yl)methyl)cyclohexyl)-2-(difluoromethyl) nicotinamide] | < 300
O=C(N[C@H]1CC[C@H](Cn2c(=O)n(-c3cc(F)ccc3Cl)c3ncccc32)CC1)c1cc(Cl)cnc1C(F)F [Example 454, 5-chloro-N-((1r,4r)-4-((3-(2-chloro-5-fluorophenyl)-2-oxo-2,3-dihydro-1H-imidazo[4,5-b]pyridin-1-yl)methyl)cyclo-hexyl)-2-(difluoromethyl) nicotinamide] | < 300
O=C(N[C@H]1CC[C@H](Cn2c(=O)n(-c3cnc4[nH]ccc4c3)c3ccccc32)CC1)c1cc(Cl)cnc1C(F)F [Example 455, 5-chloro-2-(difluoromethyl)-N-((1r,4r)-4-((2-oxo-3-(1H-pyrrolo[2,3-b]pyridin-5-yl)-2,3-dihydro-1H-benzo[d]imidazol-1-yl)methyl)cyclo-hexyl)nicotinamide] | < 300
Cc1c[nH]c2ncc(-n3c(=O)n(C[C@H]4CC[C@H](NC(=O)c5cc(Cl)cnc5C(F)F)CC4)c4ccccc43)cc12 [Example 456, 5-chloro-2-(difluoromethyl)-N-((1r,4r)-4-((3-(3-methyl-1H-pyrrolo[2,3-b]pyridin-5-yl)-2-oxo-2,3-dihydro-1H-benzo[d]imidazol-1-yl)methyl)cyclohexyl)nicotinamide] | < 300
O=C(N[C@H]1CC[C@H](Cn2c(=O)n(CCOc3ccccc3)c3ncccc32)CC1)c1cc(Cl)cnc1C(F)F [Example 458, 5-chloro-2-(difluoromethyl)-N-((1r,4r)-4-((2-oxo-3-(2-phenoxyethyl)-2,3-dihydro-1H-imidazo[4,5-b]pyridin-1-yl)methyl)cyclohexyl) nicotinamide] | < 300
O=C(N[C@H]1CC[C@H](Cn2c(=O)n(-c3ccc(Cl)cc3Cl)c3ncccc32)CC1)c1cc(Cl)cnc1C(F)F [Example 459, 5-chloro-N-((1r,4r)-4-((3-(2,4-dichlorophenyl)-2-oxo-2,3-dihydro-1H-imidazo[4,5-b]pyridin-1-yl)methyl)cyclo-hexyl)-2-(difluoromethyl) nicotinamide] | < 300
Cc1ncc(Cl)cc1C(=O)N[C@H]1CC[C@H](Cn2c(=O)n(-c3ccc(NC(C)C)nc3)c3ccccc32)CC1 [Example 460, 5-chloro-N-((1r,4r)-4-((3-(6-(isopropylamino)pyridin-3-yl)-2-oxo-2,3-dihydro-1H-benzo[d]imidazol-1-yl)methyl)cyclohexyl)-2-methylnicotinamide] | < 300
O=C(N[C@H]1CC[C@H](Cn2c(=O)n(-c3ccc(N4CC[C@@H](O)C4)nc3)c3ccccc32)CC1)c1cc(Cl)cnc1C(F)F [Example 461, 5-chloro-2-(difluoromethyl)-N-((1R,4r)-4-((3-(6-((R)-3-hydroxypyrrolidin-1-yl)pyridin-3-yl)-2-oxo-2,3-dihydro-1H-benzo[d]imidazol-1-yl)methyl)cyclohexyl) nicotinamide] | < 300

Continued, values first:

IC50 [nM] | Structure (SMILES)
< 300 | Cc1ncc(Cl)cc1C(=O)N[C@H]1CC[C@H](Cn2c(=O)n(-c3cnc4cccnc4c3)c3ccccc32)CC1 [Example 442, N-((1r,4r)-4-((3-(1,5-naph-thyridin-3-yl)-2-oxo-2,3-dihydro-1H-benzo[d]imidazol-1-yl)methyl)cyclo-hexyl)-5-chloro-2-methyl-nicotinamide]
< 300 | Cc1ncc(Cl)cc1C(=O)N[C@H]1CC[C@H](Cn2c(=O)n(-c3ccc4cncnc4c3)c3ccccc32)CC1 [Example 443, 5-chloro-2-methyl-N-((1r,4r)-4-((2-oxo-3-(quinazolin-7-yl)-2,3-dihydro-1H-benzo[d]imidazol-1-yl)methyl)cyclo-hexyl)nicotinamide]
< 300 | Cc1ncc(Cl)cc1C(=O)N[C@H]1CC[C@H](Cn2c(=O)n(-c3cccc(N4CCOCC4)c3)c3ccccc32)CC1 [Example 444, 5-chloro-2-methyl-N-((1r,4r)-4-((3-(3-morpholinophenyl)-2-oxo-2,3-dihydro-1H-benzo [d]imidazol-1-yl)methyl)cyclo-hexyl)nicotinamide]
< 300 | Cc1ncc(Cl)cc1C(=O)N[C@H]1CC[C@H](Cn2c(=O)n(-c3ccc(-c4ccon4)cc3)c3ccccc32)CC1 [Example 445, 5-chloro-N-((1r,4r)-4-((3-(4-(isoxazol-3-yl)phenyl)-2-oxo-2,3-dihydro-1H-benzo[d]imidazol-1-yl)methyl)cyclo-hexyl)-2-methylnicotinamide]
< 300 | Cc1ncc(Cl)cc1C(=O)N[C@H]1CC[C@H](Cn2c(=O)n(-c3ccc(-c4ccnn4C)cc3)c3ccccc32)CC1 [Example 446, 5-chloro-2-methyl-N-((1r,4r)-4-((3-(4-(1-methyl-1H-pyrazol-5-yl)phenyl)-2-oxo-2,3-dihydro-1H-benzo[d]imidazol-1-yl)methyl)cyclo-hexyl)nicotinamide]
< 300 | Cc1ncc(Cl)cc1C(=O)N[C@H]1CC[C@H](Cn2c(=O)n(-c3ccc(-c4ccn(C)n4)cc3)c3ccccc32)CC1 [Example 447, 5-chloro-2-methyl-N-((1r,4r)-4-((3-(4-(1-methyl-1H-pyrazol-3-yl)phenyl)-2-oxo-2,3-dihydro-1H-benzo[d]imidazol-1-yl)methyl)cyclo-hexyl)nicotinamide]
< 300 | Cc1ncc(Cl)cc1C(=O)N[C@H]1CC[C@H](Cn2c(=O)n(Cc3ccccc3)c3ncccc32)CC1 [Example 448, N-((1r,4r)-4-((3-benzyl-2-oxo-2,3-dihydro-1H-imidazo [4,5-b]pyridin-1-yl)methyl)cyclohexyl)-5-chloro-2-methylnicotinamide]
< 300 | O=C(N[C@H]1CC[C@H](Cn2c(=O)n(-c3ccccc3F)c3ncccc32)CC1)c1cc(Cl)cnc1C(F)F [Example 449, 5-chloro-2-(difluoromethyl)-N-((1r,4r)-4-((3-(2-fluoro-phenyl)-2-oxo-2,3-dihydro-1H-imidazo[4,5-b]pyridin-1-yl)methyl)cyclohexyl) nicotinamide]
